Each block holds one molecule with its values, some of them ahead of it.
System: 843782-103-R-J1-PDC complex spheroid viability
Assay: Anticancer human tumor 843782-103-R-J1-PDC patient-derived lung adenocarcinoma cell line growth inhibition [RAS]
Conditions: for IC50: curve of first compound; for viability, T/C: stronger effect = lower value
How it was run: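 Agents were tested in combination matrices in half-log decrements from a top concentration at or near clinical Cmax (10 microM if undetermined). Targets were multi-cell spheroids of tumour lines plus HUVEC and MSC stromal cells.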
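Note: viability read after seven days of compound exposure.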

IC50 (second compound 0.00316 µM): 726 nM
IC50 (second compound 0.01 µM): 711 nM
IC50 (second compound 0.0316 µM): 672 nM
IC50 (second compound 0.1 µM): 669 nM
IC50 (second compound 0.316 µM): 641 nM
IC50 (second compound 1 µM): 869 nM
Compound: CC(C)NCC(C(=O)N1CCN(c2ncnc3c2C(C)CC3O)CC1)c1ccc(Cl)cc1 (stereo unspecified) + C=CC(=O)N1CCN(c2nc(OCC3CCCN3C)nc3c(F)c(-c4nc(N)cc(C)c4C(F)(F)F)c(Cl)cc23)C(C)C1
viability, T/C (second compound 0.00316 µM, first compound 0.0316 µM): 91.6%
viability, T/C (second compound 0.00316 µM, first compound 0.1 µM): 81.3%
viability, T/C (second compound 0.00316 µM, first compound 0.316 µM): 70%
viability, T/C (second compound 0.00316 µM, first compound 1 µM): 42.9%
viability, T/C (second compound 0.00316 µM, first compound 3.16 µM): 18.8%
viability, T/C (second compound 0.00316 µM, first compound 10 µM): 8.64%
viability, T/C (second compound 0.01 µM, first compound 0.0316 µM): 88.5%
viability, T/C (second compound 0.01 µM, first compound 0.1 µM): 85.1%
viability, T/C (second compound 0.01 µM, first compound 0.316 µM): 75.1%
viability, T/C (second compound 0.01 µM, first compound 1 µM): 38.3%
viability, T/C (second compound 0.01 µM, first compound 3.16 µM): 19.2%
viability, T/C (second compound 0.01 µM, first compound 10 µM): 8.6%
viability, T/C (second compound 0.0316 µM, first compound 0.0316 µM): 89%
viability, T/C (second compound 0.0316 µM, first compound 0.1 µM): 81.2%
viability, T/C (second compound 0.0316 µM, first compound 0.316 µM): 70.6%
viability, T/C (second compound 0.0316 µM, first compound 1 µM): 38.8%
viability, T/C (second compound 0.0316 µM, first compound 3.16 µM): 17.3%
viability, T/C (second compound 0.0316 µM, first compound 10 µM): 6.65%
viability, T/C (second compound 0.1 µM, first compound 0.0316 µM): 91.5%
viability, T/C (second compound 0.1 µM, first compound 0.1 µM): 77.9%
viability, T/C (second compound 0.1 µM, first compound 0.316 µM): 65.4%
viability, T/C (second compound 0.1 µM, first compound 1 µM): 44.7%
viability, T/C (second compound 0.1 µM, first compound 3.16 µM): 17.2%
viability, T/C (second compound 0.1 µM, first compound 10 µM): 8.54%
viability, T/C (second compound 0.316 µM, first compound 0.0316 µM): 91.5%
viability, T/C (second compound 0.316 µM, first compound 0.1 µM): 79.7%
viability, T/C (second compound 0.316 µM, first compound 0.316 µM): 67.2%
viability, T/C (second compound 0.316 µM, first compound 1 µM): 40.1%
viability, T/C (second compound 0.316 µM, first compound 3.16 µM): 18.2%
viability, T/C (second compound 0.316 µM, first compound 10 µM): 8.75%
viability, T/C (second compound 1 µM, first compound 0.0316 µM): 89.2%
viability, T/C (second compound 1 µM, first compound 0.1 µM): 74.2%
viability, T/C (second compound 1 µM, first compound 0.316 µM): 72.2%
viability, T/C (second compound 1 µM, first compound 1 µM): 47.9%
viability, T/C (second compound 1 µM, first compound 3.16 µM): 20.7%
viability, T/C (second compound 1 µM, first compound 10 µM): 7.97%

IC50 (second compound 0.000949 µM): 59 nM
IC50 (second compound 0.003 µM): 77.4 nM
IC50 (second compound 0.00949 µM): 71.8 nM
IC50 (second compound 0.03 µM): 62.4 nM
IC50 (second compound 0.0949 µM): 73.9 nM
IC50 (second compound 0.3 µM): 59.5 nM
Compound: CC1(O)CCCC1n1c(=O)c(C(F)F)cc2cnc(NC3CCN(S(C)(=O)=O)CC3)nc21 (stereo unspecified) + CCn1c(-c2cccnc2C(C)OC)c2c3cc(ccc31)N1CCOC(CC(NC(=O)C(C(C)C)N(C)C(=O)C3(F)CCN(C(=O)C#CC(C)(C)N(C)C)CC3)C(=O)N3CCCC(N3)C(=O)OCC(C)(C)C2)C1
viability, T/C (second compound 0.000949 µM, first compound 0.0316 µM): 60.3%
viability, T/C (second compound 0.000949 µM, first compound 0.1 µM): 41.9%
viability, T/C (second compound 0.000949 µM, first compound 0.316 µM): 26.5%
viability, T/C (second compound 0.000949 µM, first compound 1 µM): 18.6%
viability, T/C (second compound 0.000949 µM, first compound 3.16 µM): 19%
viability, T/C (second compound 0.000949 µM, first compound 10 µM): 2.09%
viability, T/C (second compound 0.003 µM, first compound 0.0316 µM): 64.3%
viability, T/C (second compound 0.003 µM, first compound 0.1 µM): 48.8%
viability, T/C (second compound 0.003 µM, first compound 0.316 µM): 24.5%
viability, T/C (second compound 0.003 µM, first compound 1 µM): 22.2%
viability, T/C (second compound 0.003 µM, first compound 3.16 µM): 14.9%
viability, T/C (second compound 0.003 µM, first compound 10 µM): 2.67%
viability, T/C (second compound 0.00949 µM, first compound 0.0316 µM): 61.6%
viability, T/C (second compound 0.00949 µM, first compound 0.1 µM): 43.5%
viability, T/C (second compound 0.00949 µM, first compound 0.316 µM): 32.4%
viability, T/C (second compound 0.00949 µM, first compound 1 µM): 23.2%
viability, T/C (second compound 0.00949 µM, first compound 3.16 µM): 15.3%
viability, T/C (second compound 0.00949 µM, first compound 10 µM): 2.34%
viability, T/C (second compound 0.03 µM, first compound 0.0316 µM): 58.2%
viability, T/C (second compound 0.03 µM, first compound 0.1 µM): 45.9%
viability, T/C (second compound 0.03 µM, first compound 0.316 µM): 28.3%
viability, T/C (second compound 0.03 µM, first compound 1 µM): 24.2%
viability, T/C (second compound 0.03 µM, first compound 3.16 µM): 15.5%
viability, T/C (second compound 0.03 µM, first compound 10 µM): 4.11%
viability, T/C (second compound 0.0949 µM, first compound 0.0316 µM): 60.5%
viability, T/C (second compound 0.0949 µM, first compound 0.1 µM): 50.1%
viability, T/C (second compound 0.0949 µM, first compound 0.316 µM): 25.9%
viability, T/C (second compound 0.0949 µM, first compound 1 µM): 24.4%
viability, T/C (second compound 0.0949 µM, first compound 3.16 µM): 16.4%
viability, T/C (second compound 0.0949 µM, first compound 10 µM): 2.24%
viability, T/C (second compound 0.3 µM, first compound 0.0316 µM): 60.5%
viability, T/C (second compound 0.3 µM, first compound 0.1 µM): 43.2%
viability, T/C (second compound 0.3 µM, first compound 0.316 µM): 21.9%
viability, T/C (second compound 0.3 µM, first compound 1 µM): 23%
viability, T/C (second compound 0.3 µM, first compound 3.16 µM): 19.4%
viability, T/C (second compound 0.3 µM, first compound 10 µM): 1.76%

IC50 (second compound 0.00316 µM): 6.62 nM
IC50 (second compound 0.01 µM): 7.23 nM
IC50 (second compound 0.0316 µM): 7.99 nM
IC50 (second compound 0.1 µM): 5.81 nM
IC50 (second compound 0.316 µM): 6.75 nM
IC50 (second compound 1 µM): 6.96 nM
Compound: CC1(C)CCC(Nc2ncc(C(F)(F)F)c(-c3c[nH]c4c(P(C)(C)=O)c(C#N)ccc34)n2)CN1 (stereo unspecified) + C=CC(=O)N1CCN(c2nc(OCC3CCCN3C)nc3c(F)c(-c4nc(N)cc(C)c4C(F)(F)F)c(Cl)cc23)C(C)C1
viability, T/C (second compound 0.00316 µM, first compound 0.000949 µM): 85.3%
viability, T/C (second compound 0.00316 µM, first compound 0.003 µM): 72.8%
viability, T/C (second compound 0.00316 µM, first compound 0.00949 µM): 38.8%
viability, T/C (second compound 0.00316 µM, first compound 0.03 µM): 25.7%
viability, T/C (second compound 0.00316 µM, first compound 0.0949 µM): 13.6%
viability, T/C (second compound 0.00316 µM, first compound 0.3 µM): 21.5%
viability, T/C (second compound 0.01 µM, first compound 0.000949 µM): 89.1%
viability, T/C (second compound 0.01 µM, first compound 0.003 µM): 75.6%
viability, T/C (second compound 0.01 µM, first compound 0.00949 µM): 42%
viability, T/C (second compound 0.01 µM, first compound 0.03 µM): 23%
viability, T/C (second compound 0.01 µM, first compound 0.0949 µM): 18.5%
viability, T/C (second compound 0.01 µM, first compound 0.3 µM): 18.8%
viability, T/C (second compound 0.0316 µM, first compound 0.000949 µM): 82.7%
viability, T/C (second compound 0.0316 µM, first compound 0.003 µM): 81.2%
viability, T/C (second compound 0.0316 µM, first compound 0.00949 µM): 44.5%
viability, T/C (second compound 0.0316 µM, first compound 0.03 µM): 22.1%
viability, T/C (second compound 0.0316 µM, first compound 0.0949 µM): 20.6%
viability, T/C (second compound 0.0316 µM, first compound 0.3 µM): 18%
viability, T/C (second compound 0.1 µM, first compound 0.000949 µM): 87.8%
viability, T/C (second compound 0.1 µM, first compound 0.003 µM): 70%
viability, T/C (second compound 0.1 µM, first compound 0.00949 µM): 35.7%
viability, T/C (second compound 0.1 µM, first compound 0.03 µM): 18.3%
viability, T/C (second compound 0.1 µM, first compound 0.0949 µM): 19.3%
viability, T/C (second compound 0.1 µM, first compound 0.3 µM): 18.9%
viability, T/C (second compound 0.316 µM, first compound 0.000949 µM): 87.3%
viability, T/C (second compound 0.316 µM, first compound 0.003 µM): 72.7%
viability, T/C (second compound 0.316 µM, first compound 0.00949 µM): 40.9%
viability, T/C (second compound 0.316 µM, first compound 0.03 µM): 21.7%
viability, T/C (second compound 0.316 µM, first compound 0.0949 µM): 19.3%
viability, T/C (second compound 0.316 µM, first compound 0.3 µM): 19.6%
viability, T/C (second compound 1 µM, first compound 0.000949 µM): 95.3%
viability, T/C (second compound 1 µM, first compound 0.003 µM): 69.8%
viability, T/C (second compound 1 µM, first compound 0.00949 µM): 45%
viability, T/C (second compound 1 µM, first compound 0.03 µM): 23.5%
viability, T/C (second compound 1 µM, first compound 0.0949 µM): 19.5%
viability, T/C (second compound 1 µM, first compound 0.3 µM): 23.7%

— PubChem BioAssay AID2060883 (Molecular Pharmacology Branch, DTP, NCI, 2025)
